Measured values as given in ChEMBL document CHEMBL1151151, “Anti-AIDS agents, 2: Inhibitory effects of tannins on HIV reverse transcriptase and HIV replication in H9 lymphocyte cells” (J Nat Prod, 1990).
Active and inactive are the calls of the source. The calls are words filed in the database; no cut-off is given here.

Legend:
[1] = test system: Human immunodeficiency virus 1; test: Antiviral activity against HIV1 3B infected in human H9 cells assessed as inhibition of viral replication at 18 uM treated during viral infection step by p24 antigen capture assay; format: functional, organism-based
[2] = test system: Human immunodeficiency virus 1; test: Antiviral activity against HIV1 3B infected in human H9 cells assessed as inhibition of viral replication at 21 uM treated after viral infection by p24 antigen capture assay; format: functional, organism-based
[3] = test system: Human immunodeficiency virus 1; test: Antiviral activity against HIV1 3B infected in human H9 cells assessed as inhibition of viral replication after 3 days by p24 antigen capture assay; format: functional; design: concentration or dose not given beside the values
[4] = test system: Human immunodeficiency virus 1; test: Antiviral activity against HIV1 3B infected in human H9 cells assessed as inhibition of viral replication at 18 uM pretreated before viral infection by p24 antigen capture assay; format: functional, organism-based
[5] = test system: Human immunodeficiency virus 1; test: Antiviral activity against HIV1 3B infected in human H9 cells assessed as inhibition of viral replication at 18 uM treated after viral infection by p24 antigen capture assay; format: functional, organism-based
[6] = test system: Human immunodeficiency virus 1; test: Antiviral activity against HIV1 3B infected in human H9 cells assessed as inhibition of viral replication at 21 uM treated during viral infection step by p24 antigen capture assay; format: functional, organism-based
[7] = test system: Human immunodeficiency virus 1; test: Antiviral activity against HIV1 3B infected in human H9 cells assessed as inhibition of viral replication at 21 uM pretreated before viral infection by p24 antigen capture assay; format: functional, organism-based
[8] = biological target: Human immunodeficiency virus type 1 reverse transcriptase (Human immunodeficiency virus 1) (UniProt Q72547); test: Inhibition of HIV reverse transcriptase
[9] = test system: Human immunodeficiency virus 1; test: Antiviral activity against HIV1 3B infected in human H9 cells assessed as inhibition of viral replication at 10 uM pretreated before viral infection by p24 antigen capture assay; format: functional, organism-based
[10] = test system: Human immunodeficiency virus 1; test: Antiviral activity against HIV1 3B infected in human H9 cells assessed as inhibition of viral replication at 10 uM treated during viral infection step by p24 antigen capture assay; format: functional, organism-based
[11] = test system: Human immunodeficiency virus 1; test: Antiviral activity against HIV1 3B infected in human H9 cells assessed as inhibition of viral replication at 9.2 uM treated during viral infection step by p24 antigen capture assay; format: functional, organism-based
[12] = test system: Human immunodeficiency virus 1; test: Antiviral activity against HIV1 3B infected in human H9 cells assessed as inhibition of viral replication at 9.2 uM pretreated before viral infection by p24 antigen capture assay; format: functional, organism-based
[13] = biological target: Human immunodeficiency virus type 1 reverse transcriptase (Human immunodeficiency virus 1) (UniProt Q72547); test: Inhibition of polymerase activity of HIV reverse transcriptase assessed as residual enzyme activity at 46 uM in presence of 375 ug/ml activated dNA and 5 uM dTTP
[14] = biological target: Human immunodeficiency virus type 1 reverse transcriptase (Human immunodeficiency virus 1) (UniProt Q72547); test: Inhibition of polymerase activity of HIV reverse transcriptase assessed as residual enzyme activity at 46 uM in presence of 75 ug/ml activated dNA and 5 uM dTTP
[15] = biological target: Human immunodeficiency virus type 1 reverse transcriptase (Human immunodeficiency virus 1) (UniProt Q72547); test: Inhibition of polymerase activity of HIV reverse transcriptase assessed as residual enzyme activity at 46 uM in presence of 75 ug/ml activated dNA and 25 uM dTTP
[16] = biological target: Human immunodeficiency virus type 1 reverse transcriptase (Human immunodeficiency virus 1) (UniProt Q72547); test: Inhibition of polymerase activity of HIV reverse transcriptase assessed as residual enzyme activity at 64 uM in presence of 75 ug/ml activated dNA and 25 uM dTTP
[17] = test system: Human immunodeficiency virus 1; test: Antiviral activity against HIV1 3B infected in human H9 cells assessed as inhibition of viral replication at 13 uM pretreated before viral infection by p24 antigen capture assay; format: functional, organism-based
[18] = Growth inhibition of human H9 cells at 30 uM; format: cell-based; settings: read-out: GI
[19] = test system: Human immunodeficiency virus 1; test: Antiviral activity against HIV1 3B infected in human H9 cells assessed as inhibition of viral replication at 13 uM treated during viral infection step by p24 antigen capture assay; format: functional, organism-based
[20] = biological target: Human immunodeficiency virus type 1 reverse transcriptase (Human immunodeficiency virus 1) (UniProt Q72547); test: Inhibition of polymerase activity of HIV reverse transcriptase assessed as residual enzyme activity at 64 uM in presence of 375 ug/ml activated dNA and 5 uM dTTP
[21] = biological target: Human immunodeficiency virus type 1 reverse transcriptase (Human immunodeficiency virus 1) (UniProt Q72547); test: Inhibition of HIV reverse transcriptase at 12.5 uM; settings: TDE = time-dependent effect
[22] = biological target: Human immunodeficiency virus type 1 reverse transcriptase (Human immunodeficiency virus 1) (UniProt Q72547); test: Inhibition of polymerase activity of HIV reverse transcriptase assessed as residual enzyme activity at 64 uM in presence of 75 ug/ml activated dNA and 5 uM dTTP

ID50 [8] [µM]	Compound	Activity [2]	inhibition (INH) [3] [%]	Activity [5]	other results
–	O=C(O[C@@H]1[C@H](O)C[C@@](OC(=O)c2cc(O)c(O)c(O)c2)(C(=O)O)C[C@H]1OC(=O)c1cc(O)c(O)c(O)c1)c1cc(O)c(O)c(O)c1	Active	>50	Active	Activity [1]: Active; Activity [4]: Active
–	O=C(O)C1=C[C@@H](OC(=O)c2cc(O)c(O)c(O)c2)[C@@H](OC(=O)c2cc(O)c(O)c(O)c2)[C@H](OC(=O)c2cc(O)c(O)c(O)c2)C1	–	>50	–	–
–	O=C(O)C1=C[C@@H](OC(=O)c2cc(O)c(O)c(O)c2)[C@@H](O)[C@H](OC(=O)c2cc(O)c(O)c(O)c2)C1	Active	>50	Active	Activity [6]: Active; Activity [7]: Active
20	O=C(O[C@@H]1O[C@@H]2COC(=O)c3cc(O)c(O)c(O)c3-c3c(cc(O)c(O)c3O)C(=O)O[C@H]2[C@@H]2OC(=O)c3cc(O)c(O)c(O)c3-c3c(cc(O)c(O)c3O)C(=O)O[C@@H]12)c1cc(O)c(O)c(Oc2c(O)c(O)c(O)c3c2C(=O)O[C@H]2[C@@H]4OC(=O)c5cc(O)c(O)c(O)c5-c5c(cc(O)c(O)c5O)C(=O)O[C@H]4[C@@H](OC(=O)c4cc(O)c(O)c(Oc5c(O)c(O)c(O)c6c5C(=O)O[C@H]5[C@@H]7OC(=O)c8cc(O)c(O)c(O)c8-c8c(cc(O)c(O)c8O)C(=O)O[C@H]7[C@H](OC(=O)c7cc(O)c(O)c(Oc8c(O)c(O)c(O)c9c8C(=O)O[C@H]8[C@@H]%10OC(=O)c%11cc(O)c(O)c(O)c%11-c%11c(cc(O)c(O)c%11O)C(=O)O[C@H]%10[C@@H](OC(=O)c%10cc(O)c(O)c(O)c%10)O[C@@H]8COC(=O)c8cc(O)c(O)c(O)c8-9)c7)O[C@@H]5COC(=O)c5cc(O)c(O)c(O)c5-6)c4)O[C@@H]2COC(=O)c2cc(O)c(O)c(O)c2-3)c1	–	–	–	–
–	O=C(O)C[C@@H]1C(=O)O[C@H]2[C@@H]3OC(=O)c4cc(O)c(O)c(O)c4-c4c(cc(O)c(O)c4O)C(=O)OC[C@H]2O[C@@H](OC(=O)c2cc(O)c(O)c(O)c2)[C@@H]3OC(=O)c2cc(O)c(O)c3c2[C@H]1[C@H](O)C(=O)O3 [CHEBULAGIC ACID]	Active	>50	Active	Activity [9]: inactive; Activity [10]: Active
–	O=C(O)C[C@H]1C(=O)O[C@H]2[C@H](OC(=O)c3cc(O)c(O)c(O)c3)[C@@H](OC(=O)c3cc(O)c(O)c4c3[C@H]1[C@H](O)C(=O)O4)[C@H](OC(=O)c1cc(O)c(O)c(O)c1)O[C@@H]2COC(=O)c1cc(O)c(O)c(O)c1 [CHEBULINIC ACID]	Active	>50	Active	Activity [9]: Active; Activity [10]: Active
5	O=C1O[C@H]([C@@H]2OC(=O)c3cc(O)c(O)c(O)c3-c3c(O)c(O)c4oc(=O)c5c(c(O)c(O)c6oc(=O)c3c4c65)-c3c(cc(O)c(O)c3O)C(=O)OC[C@H]2O)[C@@H]2OC(=O)c3c(c(O)c(O)c(O)c3[C@H]2O)-c2c1cc(O)c(O)c2O [PUNICACORTEIN C]	Active	>50	Active	Activity [11]: Active; Activity [12]: Active; Activity [13]: 46.2%; Activity [14]: 21.5%; Activity [15]: 37.6%
–	O=C1O[C@@H]2[C@@H](OC(=O)c3cc(O)c(O)c(O)c3-c3c1cc(O)c(O)c3O)[C@H](O)O[C@@H]1COC(=O)c3cc(O)c(O)c(O)c3-c3c(O)c(O)c4oc(=O)c5c(c(O)c(O)c6oc(=O)c3c4c65)-c3c(cc(O)c(O)c3O)C(=O)O[C@@H]21 [PUNICALAGIN]	Active	>50	Active	Activity [11]: Active; Activity [12]: Active
8	O=C1OC[C@H]2O[C@@H](O)[C@H](O)[C@@H](O)[C@@H]2OC(=O)c2cc(O)c(O)c(O)c2-c2c(O)c(O)c3oc(=O)c4c(c(O)c(O)c5oc(=O)c2c3c54)-c2c1cc(O)c(O)c2O [PUNICALIN]	Active	>50	Active	Activity [16]: 34.4%; Activity [8]: Dose-dependent effect; Activity [17]: inactive; inhibition at 30 µM [18]: 15%; Activity [19]: Active; Activity [20]: 45.3%; Activity [21]: tde; Activity [22]: 11.4%
